Data: patent US20240368106A1, “HYDROXY AND ALKOXY COUMARINS AS MODULATORS OF POLRMT” (Pretzel Therapeutics, Inc., priority 2021, published 2024)

target: POLRMT (Homo sapiens (Human), UniProt O00411); experiment: homogeneous TR-FRET assay of mitochondrial transcription (inhibition of POLRMT); assay type: biochemical; details: 7.5 nM POLRMT, 15 nM TFB2M, 30 nM TFAM, 0.5 nM DNA template, 500 μM NTPs, 37° C., 60 minutes
Procedure: The inhibitory activity of the compounds of the present invention against POLRMT were determined by assays based on Bergbrede, T., et al., “An adaptable high-throughput technology enabling the identification of specific transcription modulators,” SLAC Discov., 22, 378-386 (2017).
The ability of some compounds of the present invention to inhibit POLRMT were determined in a homogeneous TR-FRET Assay using high-throughput screening in a 384-well plate format. This method is used to monitor the activity of mitochondrial transcription through measurement of its product, a 407 bp long RNA transcript. Detection of the product is facilitated by hybridization of two DNA-oligonucleotide probes to specific and adjacent sequences within the RNA product sequence. Upon annealing of the probes, two fluorophores are coupled directly to an acceptor nucleotide probe (ATT0647, 5′), or introduced via a coupled streptavidin with a biotinylated donor nucleotide probe (Europium cryptate) that is brought into sufficient proximity to serve as a fluorescence-donor-acceptor pair. Thus, a FRET signal at 665 nm is generated upon excitation at 340 nm.
Proteins used as transcription factors (POLRMT: NP_005026.3, TFAM: NP_003192.1, TFB2M: NP_071761.1) are diluted from their stocks to working concentrations of 1 μM, 20 μM and 4 μM respectively, in a dilution buffer containing 20 mM Tris-HCl (pH 8.0), 200 mM NaCl, 10% (v/v) glycerol, 1 mM Dithiothreitol (DTT), 0.5 mM EDTA.
DNA template is a pUC18 plasmid with the mitochondrial light strand promotor sequence (1-477) cloned between HindIII and BamHI sites. The DNA template is restriction linearized proximal to the promotor 3′-end (pUC-LSP). The reaction mixture (10 uL) containing 7.5 nM POLRMT, 15 nM of TFB2M, 30 nM of TFAM, 0.5 nM of DNA template and 500 μM nucleotide triphosphate mix (NTPs) in a reaction buffer (containing 10 mM Tris-HCl (pH 7.5), 10 mM MgCl2, 40 mM NaCl, 10 mM DTT, 0.005% (w/v) Tween-20, 160 units/ml Rnase inhibitor and 0.1 mg/mL BSA) are dispensed to compounds in microplates, using a Thermo Multidrop® dispenser, and incubated at 37° C. in a VWR INCU-Line incubator for 60 minutes after mixing. No nucleotide triphosphate mix is added to negative control samples. Microplates with compounds to be tested in the assay are prepared from 10 mM compound stocks in 100% DMSO, equal amounts of DMSO without any compound are added to positive control and negative control samples.
During the incubation, a mix of the detection reagents is prepared in a buffer such that the enzymatic reaction is terminated due to chelating of Mg-ions and increased ionic strength, containing 50 mM Tris-HCl (pH 7.5), 700 mM NaCl, 20 mM EDTA, and 0.010% (w/v) Tween-20. Europium-streptavidin is pre-incubated with a 200-fold molar excess of a random sequence oligonucleotide to block unspecific binding of oligo, for two hours at ambient temperature in the dark. Afterwards, the blocked Europium-streptavidin is kept on ice until use.
At the end of the enzymatic reaction time, 5 μL detection oligo mix in the detection buffer is added, and assay plates are mixed and kept at ambient temperature for one hour, protected from light. The concentration of the Acceptor nucleotide oligo (e.g., ATTO647N-5′-[…]-3′) and Donor nucleotide oligo (e.g., bio-5′-AACACATCTCT(-bio)GCCAAACCCCA-bio-3′) in each assay well is 1 nM, and 3 nM, respectively.
After incubation with oligo mix, 5 μL of pre-blocked Europium-streptavidin reagent is dispensed to each assay well, assay plates are again mixed and kept at ambient temperature for one hour, protected from light.
The generated signal is measured with BMG Pherastar microtiter plate reader with a TRF light unit, using excitation at 340 nm, an integration time of 200 μs, and a delay time of 100 μs, before detection at 620 nm and 665 nm. The ratio of donor- and acceptor-fluorescence is used as a measure of the generated transcript product (i.e. enzymatic activity).

Chain of POLRMT (O00411 42-1230): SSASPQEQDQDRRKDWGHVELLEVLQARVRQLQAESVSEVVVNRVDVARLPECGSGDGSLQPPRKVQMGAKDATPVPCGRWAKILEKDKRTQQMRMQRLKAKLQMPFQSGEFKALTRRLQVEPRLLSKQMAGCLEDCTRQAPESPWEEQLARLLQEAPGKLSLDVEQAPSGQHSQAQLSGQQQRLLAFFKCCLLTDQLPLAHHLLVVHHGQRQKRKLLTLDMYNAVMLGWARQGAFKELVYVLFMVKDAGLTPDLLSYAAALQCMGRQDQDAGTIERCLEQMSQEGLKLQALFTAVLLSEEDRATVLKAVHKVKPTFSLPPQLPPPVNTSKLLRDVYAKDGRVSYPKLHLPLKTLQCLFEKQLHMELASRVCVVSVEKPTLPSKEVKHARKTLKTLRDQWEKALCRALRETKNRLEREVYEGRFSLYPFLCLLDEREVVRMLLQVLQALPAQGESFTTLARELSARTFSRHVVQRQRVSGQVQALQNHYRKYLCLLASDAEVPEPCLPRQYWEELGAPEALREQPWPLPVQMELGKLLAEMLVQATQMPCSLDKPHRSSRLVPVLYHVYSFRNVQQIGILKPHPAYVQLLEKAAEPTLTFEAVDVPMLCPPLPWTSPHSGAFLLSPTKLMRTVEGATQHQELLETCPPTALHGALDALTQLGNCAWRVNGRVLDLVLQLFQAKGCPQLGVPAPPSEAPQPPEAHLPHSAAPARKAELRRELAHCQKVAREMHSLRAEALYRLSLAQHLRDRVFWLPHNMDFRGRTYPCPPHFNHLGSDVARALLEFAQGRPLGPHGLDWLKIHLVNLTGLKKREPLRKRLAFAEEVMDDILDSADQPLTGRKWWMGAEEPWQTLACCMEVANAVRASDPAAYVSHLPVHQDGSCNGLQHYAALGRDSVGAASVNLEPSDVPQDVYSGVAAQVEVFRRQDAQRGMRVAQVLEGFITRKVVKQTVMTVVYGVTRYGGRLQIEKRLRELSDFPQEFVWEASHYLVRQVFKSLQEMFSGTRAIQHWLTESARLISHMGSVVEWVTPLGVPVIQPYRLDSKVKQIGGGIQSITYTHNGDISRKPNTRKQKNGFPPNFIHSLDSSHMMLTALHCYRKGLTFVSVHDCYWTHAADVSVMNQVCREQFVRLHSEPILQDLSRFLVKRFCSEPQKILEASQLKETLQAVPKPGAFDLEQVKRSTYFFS

Compound | IC50
COCC(Oc1ccc2c(-c3ccccc3Cl)cc(=O)oc2c1)C(=O)N(C)C (single isomer, unassigned) [Example 93, 2-((4-(2-chlorophenyl)-2-oxo-2H-chromen-7-yl)oxy)-3-methoxy-N,N-dimethylpropanamide] | 18 µM
COCC(Oc1ccc2c(-c3ccccc3Cl)cc(=O)oc2c1)C(N)=O (single isomer, unassigned) [Example 95, 2-((4-(2-chlorophenyl)-2-oxo-2H-chromen-7-yl)oxy)-3-methoxypropanamide] | 14 µM
CNC(=O)C(CO)Oc1ccc2c(-c3ccccc3C)cc(=O)oc2c1 (single isomer, unassigned) [Example 97, 3-hydroxy-N-methyl-2-[4-(o-tolyl)-2-oxo-chromen-7-yl]oxy-propanamide] | 5 µM
CNC(=O)C(CO)Oc1ccc2c(-c3ccccc3C)cc(=O)oc2c1 (single isomer, unassigned) [Example 98, 3-hydroxy-N-methyl-2-[4-(o-tolyl)-2-oxo-chromen-7-yl]oxy-propanamide] | > 100 µM
CCCOc1ccc2c(-c3ccccc3C)cc(=O)oc2c1 [Example 02, 7-propoxy-4-(o-tolyl)-2H-chromen-2-one] | 0.09 µM
COc1ccc2c(-c3ccccc3C)cc(=O)oc2c1 [Example 04, 7-methoxy-4-(o-tolyl)-2H-chromen-2-one] | 2 µM
Cc1ccccc1-c1cc(=O)oc2cc(OC(C)C)ccc12 [Example 05, 7-isopropoxy-4-(o-tolyl)-2H-chromen-2-one] | 0.1 µM
Cc1ccccc1-c1cc(=O)oc2cc(OCCc3ccccc3)ccc12 [Example 07, 7-phenethoxy-4-(o-tolyl)-2H-chromen-2-one] | 4 µM
Cc1ccccc1-c1cc(=O)oc2cc(OCCN(C)C)ccc12 [Example 08, 7-(2-(dimethylamino)ethoxy)-4-(o-tolyl)-2H-chromen-2-one] | 94 µM
CNC(=O)CCOc1ccc2c(-c3ccccc3C)cc(=O)oc2c1 [Example 12, N-methyl-3-((2-oxo-4-(o-tolyl)-2H-chromen-7-yl)oxy)propanamide] | 7 µM
O=c1cc(-c2ccc(F)cc2Cl)c2ccc(O)cc2o1 [Example 13, 4-(2-chloro-4-fluorophenyl)-7-hydroxy-2H-chromen-2-one] | 3 µM
COCC(Oc1ccc2c(-c3ccc(F)cc3Cl)cc(=O)oc2c1)C(=O)OC (centres unmarked) [Example 14, methyl 2-((4-(2-chloro-4-fluorophenyl)-2-oxo-2H-chromen-7-yl)oxy)-3-methoxypropanoate] | 0.2 µM
O=C([C@@H](CO)Oc1ccc2c(-c3ccc(F)cc3Cl)cc(=O)oc2c1)N1CCCCC1 [Example 15, (R)-4-(2-chloro-4-fluorophenyl)-7-((3-hydroxy-1-oxo-1-(piperidin-1-yl)propan-2-yl)oxy)-2H-chromen-2-one] | 0.4 µM
Cc1cc(O)cc2oc(=O)cc(-c3ccc(F)cc3)c12 [Example 16, 4-(4-fluorophenyl)-7-hydroxy-5-methyl-2H-chromen-2-one] | > 100 µM
Cc1cc(O[C@H](C)C(=O)N2CCCCC2)cc2oc(=O)cc(-c3ccc(F)cc3)c12 [Example 19, 4-(4-fluorophenyl)-5-methyl-7-[(1R)-1-methyl-2-oxo-2-(1-piperidyl)ethoxy]chromen-2-one] | 0.5 µM
Cc1cc(O)cc2oc(=O)cc(-c3ccccc3)c12 [Example 22, 7-hydroxy-5-methyl-4-phenyl-2H-chromen-2-one] | 34 µM
Cc1cc(OCC(C)C)cc2oc(=O)cc(-c3ccccc3)c12 [Example 24, 7-isobutoxy-5-methyl-4-phenyl-2H-chromen-2-one] | 93 µM
Cc1ccccc1-c1cc(=O)oc2cc(OCC3CCOCC3)ccc12 [Example 29, 7-((tetrahydro-2H-pyran-4-yl)methoxy)-4-(o-tolyl)-2H-chromen-2-one] | 1 µM
CCCOc1ccc2c(-c3ccc(O)cc3C)cc(=O)oc2c1 [Example 34, 4-(4-hydroxy-2-methylphenyl)-7-propoxy-2H-chromen-2-one] | 4 µM

The next lines start with the values.

IC50 | Compound
14 µM | CNC(=O)C(COC)Oc1ccc2c(-c3ccccc3Cl)cc(=O)oc2c1 (single isomer, unassigned) [Example 91, 2-((4-(2-chlorophenyl)-2-oxo-2H-chromen-7-yl)oxy)-3-methoxy-N-methylpropanamide]
0.4 µM | CNC(=O)C(COC)Oc1ccc2c(-c3ccccc3Cl)cc(=O)oc2c1 (single isomer, unassigned) [Example 92, 2-((4-(2-chlorophenyl)-2-oxo-2H-chromen-7-yl)oxy)-3-methoxy-N-methylpropanamide]
0.09 µM | COCC(Oc1ccc2c(-c3ccccc3Cl)cc(=O)oc2c1)C(=O)N(C)C (single isomer, unassigned) [Example 94, 2-((4-(2-chlorophenyl)-2-oxo-2H-chromen-7-yl)oxy)-3-methoxy-N,N-dimethylpropanamide]
0.5 µM | COCC(Oc1ccc2c(-c3ccccc3Cl)cc(=O)oc2c1)C(N)=O (single isomer, unassigned) [Example 96, 2-((4-(2-chlorophenyl)-2-oxo-2H-chromen-7-yl)oxy)-3-methoxypropanamide]
3 µM | Cc1ccccc1-c1cc(=O)oc2cc(O)ccc12 [Example 01, 7-hydroxy-4-(o-tolyl)-2H-chromen-2-one]
2 µM | Cc1ccccc1-c1cc(=O)oc2cc(OCCO)ccc12 [Example 03, 7-(2-hydroxyethoxy)-4-(o-tolyl)-2H-chromen-2-one]
0.6 µM | Cc1ccccc1-c1cc(=O)oc2cc(Oc3ccccc3)ccc12 [Example 06, 7-phenoxy-4-(o-tolyl)-2H-chromen-2-one]
0.9 µM | COCCOc1ccc2c(-c3ccccc3C)cc(=O)oc2c1 [Example 09, 7-(2-methoxyethoxy)-4-(o-tolyl)-2H-chromen-2-one]
2 µM | Cc1cc(O[C@H](C)C(=O)N(C)C)cc2oc(=O)cc(-c3ccc(F)cc3)c12 [Example 20, (R)-2-((4-(4-fluorophenyl)-5-methyl-2-oxo-2H-chromen-7-yl)oxy)-N,N-dimethylpropanamide]
4 µM | COc1ccc2c(-c3ccc(F)cc3Cl)cc(=O)oc2c1 [Example 21, 4-(2-chloro-4-fluorophenyl)-7-methoxy-2H-chromen-2-one]
87 µM | Cc1cc(OC(C)C)cc2oc(=O)cc(-c3ccccc3)c12 [Example 23, 7-isopropoxy-5-methyl-4-phenyl-2H-chromen-2-one]
0.5 µM | Cc1ccccc1-c1cc(=O)oc2cc(OC3CCOCC3)ccc12 [Example 28, 7-((tetrahydro-2H-pyran-4-yl)oxy)-4-(o-tolyl)-2H-chromen-2-one]
1 µM | CCCOc1ccc2c(-c3ccccc3C(F)(F)F)cc(=O)oc2c1 [Example 30, 7-propoxy-4-(2-(trifluoromethyl)phenyl)-2H-chromen-2-one]
0.2 µM | CCCOc1ccc2c(-c3ccc(F)cc3Cl)cc(=O)oc2c1 [Example 31, 4-(2-chloro-4-fluorophenyl)-7-propoxy-2H-chromen-2-one]
23 µM | CCCOc1ccc2c(-c3cnccc3C(F)(F)F)cc(=O)oc2c1 [Example 32, 7-propoxy-4-(4-(trifluoromethyl)pyridin-3-yl)-2H-chromen-2-one]
0.2 µM | CCCOc1ccc2c(-c3cscc3C)cc(=O)oc2c1 [Example 33, 4-(4-methylthiophen-3-yl)-7-propoxy-2H-chromen-2-one]
